Laboratory results reported in US11639350B2, “Heteroaryldihydropyrimidine derivatives and methods of treating hepatitis B infections” (Janssen Pharmaceutica NV, priority 2018, dated 2023).

Assays:
HBV = HBV inhibitory activity: HBV DNA in the culture medium of HepG2.2.15 cells by q-PCR; assay type: cell-based; conditions: Hepatitis B virus, HepG2.2.15, 144 h, HepG2.2.15 cells, 6 days of compound treatment, HBV DNA in culture medium by q-PCR, highest concentration 10 μM; read-out: EC50
Procedure, shortened: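 HepG2.2.15 cells in 2% FBS medium, 40,000 per well, treated 6 days with compound (medium refreshed once), eight 3-fold dilutions from 10 μM top. HBV DNA extracted from culture medium and quantified by q-PCR; EC50 averaged over repeats. Cytotoxicity run in parallel at 5,000 cells per well, top 100 μM, giving CC50.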

[1] = Cytotoxicity determination in HepG2.2.15 cells (CCK-8); assay type: cell-based; conditions: human, 6 days of compound treatment, CCK-8, highest concentration 100 μM
Procedure, shortened: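 HepG2.2.15 cells seeded at 5,000 cells/well in 2% FBS medium, incubated overnight at 37° C., then treated 6 days with compounds (8 points, 3-fold dilutions, top 100 μM), medium refreshed once midway. CCK-8 added for 2.5 h; A450 read against 630 nm reference; CC50 calculated, averaged over repeats.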

Row | Structure (SMILES) | EC50 (HBV) | CC50 at 6 days [1]
1 | CNS(=O)(=O)[C@H]1CC[C@H](C2=C(C(=O)OC)C(c3cccc(F)c3Cl)N=C(c3nccs3)N2)CC1 (single isomer, unassigned) [Compound 259E, (trans)-methyl 4-(2-chloro-3-fluorophenyl)-6-(4-(N-methylsulfamoyl)cyclohexyl)-2-(thiazol-2-yl)-1,4-dihydropyrimidine-5-carboxylate] | 0.028 µM | 22.7 µM
2 | COC(=O)C1=C(C2CCN(S(=O)(=O)c3cnn(CCC(C)(C)O)c3)CC2)NC(c2nccs2)=NC1c1ccc(F)cc1Cl (centres unmarked) [Compound 458, Methyl 4-(2-chloro-4-fluorophenyl)-6-(1-((1-(3-hydroxy-3-methylbutyl)-1H-pyrazol-4-yl)sulfonyl)piperidin-4-yl)-2-(thiazol-2-yl)-1,4-dihydropyrimidine-5-carboxylate] | < 0.0046 µM | 15.5 µM
3 | CCOC(=O)C1=C(C2CCN(S(=O)(=O)[C@H]3C[C@H](C(=O)O)C3)CC2)NC(c2ncc(F)cc2F)=NC1c1ccc(F)c(F)c1Cl (some centres unmarked) [Compound 352B] | 0.011 µM | 29.4 µM
4 | COC(=O)C1=C(C2CCN(C(C)=O)CC2)NC(c2nccs2)=NC1c1ccc(F)cc1Cl (single isomer, unassigned) [Compound 2B, Methyl 6-(1-acetylpiperidin-4-yl)-4-(2-chloro-4-fluorophenyl)-2-(thiazol-2-yl)-1,4-dihydropyrimidine-5-carboxylate] | 0.338 µM | > 100 µM
5 | COC(=O)C1=C(C2CCN(S(=O)(=O)C3CCC(CC(=O)O)CC3)CC2)NC(c2nccs2)=NC1c1ccc(F)c(F)c1Cl (centres unmarked) [Compound 478, 2-(4-((4-(6-(2-Chloro-3,4-difluorophenyl)-5-(methoxycarbonyl)-2-(thiazol-2-yl)-3,6-dihydropyrimidin-4-yl)piperidin-1-yl)sulfonyl)cyclohexyl)acetic Acid] | 0.006 µM | 23.4 µM
6 | CCOC(=O)C1=C([C@H]2CC[C@H](C(=O)O)CC2)NC(c2nccs2)=NC1c1cccc(F)c1Br (stereo partly drawn) [Compound 150A, (trans)-4-(6-(2-bromo-3-fluorophenyl)-5-(ethoxycarbonyl)-2-(thiazol-2-yl)-3,6-dihydropyrimidin-4-yl)cyclohexane-1-carboxylic Acid] | 0.071 µM | 28.1 µM
7 | COC(=O)C1=C(C2CCCN(S(C)(=O)=O)C2)NC(c2nccs2)=NC1c1cccc(F)c1Cl (single isomer, unassigned) [Compound 98A, Methyl 4-(2-chloro-3-fluorophenyl)-6-(1-(methylsulfonyl)piperidin-3-yl)-2-(thiazol-2-yl)-1,4-dihydropyrimidine-5-carboxylate] | 0.27 µM | 11.4 µM
8 | COC(=O)C1=C(C2CCN(S(=O)(=O)C[C@H]3CC[C@H](C(=O)O)CC3)CC2)NC(c2nccs2)=NC1c1cccc(F)c1C (stereo partly drawn) [Compound 444b, (trans)-4-(((4-(6-(3-Fluoro-2-methylphenyl)-5-(methoxycarbonyl)-2-(thiazol-2-yl)-3,6-dihydropyrimidin-4-yl)piperidin-1-yl)sulfonyl)methyl)cyclohexanecarboxylic Acid] | 0.059 µM | 8.3 µM
9 | CCOC(=O)C1=C([C@H]2CC[C@H](C(=O)O)CC2)NC(c2nccs2)=NC1c1ccc(F)c(F)c1C (some centres unmarked) [Compound 154A] | 0.071 µM | 30.7 µM
10 | CCOC(=O)C1=C([C@@H]2CCN(S(C)(=O)=O)[C@@H](CF)C2)NC(c2nccs2)=NC1c1ccc(F)cc1Cl (relative stereo) [Compound 404N, ethyl 4-(2-chloro-4-fluorophenyl)-6-((trans)-2-(fluoromethyl)-1-(methylsulfonyl)piperidin-4-yl)-2-(thiazol-2-yl)-1,4-dihydropyrimidine-5-carboxylate] | 0.155 µM | 17.7 µM
